In patent US9302999B2, “Substituted triazoles as herbicides” (E. I. DU PONT DE NEMOURS AND COMPANY, priority 2012, dated 2016):

What was measured:
Oilseed Rape [1] = assay: Test C preemergence: oilseed rape; format: in vivo, Brassica napus; details: 125 g ai/ha, scale 0 to 100, 0 no effect, 100 complete control
[2] = test system: radish, wild (wild radish, Raphanus raphanistrum); assay: Test D pre-/postemergence: radish, wild; format: in vivo
From the text: Seeds of plant species selected from bluegrass (annual bluegrass, Poa annua), blackgrass (Alopecurus myosuroides), canarygrass (Phalaris minor), chickweed (common chickweed, Stellaria media), galium (catchweed bedstraw, Galium aparine), bromegrass, downy (downy bromegrass, Bromus tectorum), field poppy (Papaver rhoeas), field violet (Viola arvensis), foxtail, green (green foxtail, Setaria viridis), deadnettle (henbit deadnettle, Lamium amplexicaule), ryegrass, Italian (Italian ryegrass, Lolium multiflorum), kochia (Kochia scoparia), lambsquarters (Chenopodium album), oilseed rape (Brassica napus), pigweed (Amaranthus retroflexus), Russian thistle (Salsola iberica), chamomile (scentless chamomile, Matricaria inodora), speedwell (bird's-eye speedwell, Veronica persica), barley, spring (spring barley, Hordeum vulgare), wheat, spring (spring wheat, Triticum aestivum), buckwheat, wild (wild buckwheat, Polygonum convolvulus), mustard, wild (wild mustard, Sinapis arvensis), oat, wild (wild oat, Avena fatua), radish, wild (wild radish, Raphanus raphanistrum), windgrass (Apera spica-venti), barley, winter (winter barley, Hordeum vulgare), and wheat, winter (winter wheat, Triticum aestivum) were planted into a silt loam soil and treated preemergence with test chemicals formulated in a non-phytotoxic solvent mixture which included a surfactant. At the same time, these same crop and weed species were planted in pots containing the planting medium comprising spaghnum peat moss, vermiculite, wetting agent and starter nutrients and treated with postemergence applications of the test chemicals formulated in the same manner. Plants ranged in height from 2 to 18 cm (1- to 4-leaf stage).
(§1) Treated plants and controls were maintained in a controlled growth environment for 14 to 21 days after which time all species were compared to controls and visually evaluated. Plant response ratings, summarized in Table D, are based on a scale of 0 to 100 where 0 is no effect and 100 is complete control. A dash (-) response means no test result.

Oilseed Rape [3] = assay: Test C postemergence: oilseed rape; format: in vivo
From the text: At the same time, plants selected from these crop and weed species and also barley (winter barley, Hordeum vulgare), canarygrass (Phalaris minor), chickweed (common chickweed, Stellaria media) windgrass (Apera spica-venti) and deadnettle (henbit deadnettle, Lamium amplexicaule) were planted in pots containing Redi-Earth® planting medium (Scotts Company, 14111 Scottslawn Road, Marysville, Ohio 43041) comprising spaghnum peat moss, vermiculite, wetting agent and starter nutrients and treated with postemergence applications of test chemicals formulated in the same manner. Plants ranged in height from 2 to 18 cm (1- to 4-leaf stage) for postemergence treatments.
as §1, with “greenhouse” for “controlled growth environment”, “13” for “14”, “15 days,” for “21 days”, “C,” for “D,”

[4] = test system: foxtail, giant (giant foxtail, Setaria faberii); assay: Test F pre-/postemergence: foxtail, giant; format: in vivo; details: Preemergence
From the text: (§2) Seeds of plant species selected from corn (Zea mays), soybean (Glycine max), velvetleaf (Abutilon theophrasti), lambsquarters (Chenopodium album), poinsettia, wild (wild poinsettia, Euphorbia heterophylla), pigweed, palmer (palmer pigweed, Amaranthus palmeri), waterhemp (common waterhemp, Amaranthus rudis), surinam grass (Brachiaria decumbens), crabgrass, Brazil (Brazilian crabgrass, Digitaria horizontalis), panicum, fall (fall panicum Panicum dichotomiflorum), crabgrass, large (large crabgrass, Digitaria sanguinalis), foxtail, giant (giant foxtail, Setaria faberii), foxtail, green (green foxtail Setaria viridis), goosegrass (Eleusine indica), ragweed (common ragweed, Ambrosia elatior), barnyardgrass (Echinochloa crus-galli), sandbur (southern sandbur, Cenchrus echinatus), arrowleaf sida (Sida rhombifolia), ryegrass, Italian (Italian ryegrass, Lolium multiflorum), dayflower, VA (Virginia (VA) dayflower, Commelina virginica), field bindweed (Convolvulus arvensis), cocklebur (common cocklebur, Xanthium strumarium), morningglory (Ipomoea coccinea), nightshade (eastern black nightshade, Solanum ptycanthum), kochia (Kochia scoparia), nutsedge, yellow (yellow nutsedge, Cyperus esculentus), johnsongrass (Sorghum halepense), smartweed (ladysthumb smartweed, Polygonum persicaria), and beggarticks (hairy beggarticks, Bidens pilosa), were planted into a silt loam soil and treated preemergence with test chemicals formulated in a non-phytotoxic solvent mixture which included a surfactant. At the same time, plants selected from these crop and weed species and also pigweed (Amaranthus retroflexus), waterhemp_RES1 (ALS/Triazine resistant common waterhemp, Amaranthus rudis) and waterhemp_RES2 (ALS/HPPD resistant common waterhemp, Amaranthus rudis) were planted in pots containing a planting medium comprising spaghnum peat moss, vermiculite, wetting agent and starter nutrients treated with postemergence applications of some of the test chemicals formulated in the same manner. Plants ranged in height from 2 to 18 cm for postemergence treatments (1- to 4-leaf stage).
as §1, with “greenhouse” for “controlled growth environment”, “days,” for “days”, “E,” for “D,”

[5] = test system: lambsquarters (Chenopodium album); assay: Test F pre-/postemergence: lambsquarters; format: in vivo; details: Preemergence
From the text: as §2
as §1, with “greenhouse” for “controlled growth environment”, “days,” for “days”, “E,” for “D,”

[6] = Postemergence, 31 g ai/ha, scale 0 to 100 (0 no effect, 100 complete control)
[7] = Postemergence, 62 g ai/ha, scale 0 to 100 (0 no effect, 100 complete control)
[8] = Postemergence, 125 g ai/ha, scale 0 to 100, 0 no effect, 100 complete control
[9] = Postemergence, 250 g ai/ha, scale 0 to 100 (0 no effect, 100 complete control)
[10] = Postemergence, 16 g ai/ha, scale 0 to 100
[11] = 62 g ai/ha, scale 0 to 100 (0 no effect, 100 complete control)
[12] = 4 g ai/ha, scale 0 to 100, 0 no effect, 100 complete control
[13] = 8 g ai/ha, scale 0 to 100, 0 no effect, 100 complete control
[14] = 16 g ai/ha, scale 0 to 100 (0 no effect, 100 complete control)
[15] = 31 g ai/ha, scale 0 to 100 (0 no effect, 100 complete control)
[16] = Preemergence, 31 g ai/ha, scale 0 to 100 (0 no effect, 100 complete control)
[17] = Preemergence, 62 g ai/ha, scale 0 to 100
[18] = Preemergence, 125 g ai/ha, scale 0 to 100

Row | Compound | Plant response rating, Oilseed Rape (Oilseed Rape [1]) | Plant response rating: Radish, Wild [2, 6] | Plant response rating: Radish, Wild [2, 7] | Plant response rating: Radish, Wild [2, 8] | Plant response rating: Radish, Wild [2, 9] | Plant response rating, Radish, Wild [2, 10] | Plant response rating, Oilseed Rape (Oilseed Rape [3]; [11]) | Plant response rating, Oilseed Rape (Oilseed Rape [3]; 250 g ai/ha, scale 0 to 100) | Plant response rating, Foxtail, Giant [4, 14] | Plant response rating, Foxtail, Giant [4, 15] | Plant response rating, Foxtail, Giant ([4]; 62 g ai/ha, scale 0 to 100) | Plant response rating, Lambsquarters [5, 14] | Plant response rating, Lambsquarters [5, 15] | Plant response rating, Lambsquarters ([5]; 62 g ai/ha, scale 0 to 100) | further results
1 | CCOc1nn(-c2ccc(Br)cc2)nc1Cc1ccnc(C(F)(F)F)c1 [Compound 189] | 85 |  |  |  |  |  |  |  |  |  |  |  |  |  | 
2 | Cc1nn(-c2ccc(F)cc2)nc1Cc1ccnc(C(F)(F)F)c1 [Compound 16, 4-[[2-(4-fluorophenyl)-5-methyl-2H-1,2,3-triazol-4-yl]methyl]-2-(trifluoromethyl)pyridine] |  | 100 | 100 | 100 | 100 | 90 |  |  |  |  |  |  |  |  | 
3 | CCc1nn(-c2ccc(F)cc2)nc1Oc1ccnc(C(F)(F)F)c1 [Compound 166] | 90 |  |  |  |  |  | 5 | 40 |  |  |  |  |  |  | 
4 | Cc1nn(-c2ccc(C(F)(F)F)c(F)c2)nc1Cc1ccnc(C(F)(F)F)c1 [Compound 162] | 100 |  |  |  |  |  | 90 | 95 | 70 | 100 | 100 | 98 | 98 | 98 | Plant response rating, Foxtail, Giant [4, 12]: 0; Plant response rating, Foxtail, Giant [4, 13]: 20; Plant response rating, Oilseed Rape (Oilseed Rape [3]; [15]): 90; Plant response rating, Lambsquarters [5, 12]: 0; Plant response rating, Lambsquarters [5, 13]: 0
5 | Cc1nn(-c2ccc(F)c(C(F)(F)F)c2)nc1Oc1ccnc(C(F)(F)F)c1 [Compound 147] |  | 100 | 95 | 100 |  | 85 |  |  |  |  |  |  |  |  | Plant response rating, Radish, Wild [2, 16]: 10; Plant response rating, Radish, Wild [2, 17]: 100; Plant response rating, Radish, Wild [2, 18]: 100
6 | Cc1nn(-c2ccnc(C(F)(F)F)c2)nc1Cc1ccnc(C(F)(F)F)c1 [Compound 137] |  | 40 | 90 | 100 | 100 | 40 |  |  |  |  |  |  |  |  | 
7 | CCCc1nn(-c2ccc(F)cc2)nc1Cc1ccnc(C(F)(F)F)c1 [Compound 153] | 98 |  |  |  |  |  | 90 | 95 | 40 | 85 | 100 | 0 | 65 | 98 | Plant response rating, Foxtail, Giant ([4]; 125 g ai/ha, scale 0 to 100): 100; Plant response rating, Foxtail, Giant ([4]; 250 g ai/ha, scale 0 to 100): 100; Plant response rating, Oilseed Rape (Oilseed Rape [3]; [15]): 90; Plant response rating, Lambsquarters ([5]; 125 g ai/ha, scale 0 to 100): 98; Plant response rating, Lambsquarters ([5]; 250 g ai/ha, scale 0 to 100): 98
8 | Cc1nn(-c2ccc(F)cc2)nc1Oc1ccnc(C(F)(F)F)c1 [Compound 129, 4-[[2-(4-fluorophenyl)-5-methyl-2H-1,2,3-triazol-4-yl]oxy]-2-(trifluoromethyl)pyridine] |  | 90 | 100 | 100 | 100 | 90 |  |  |  |  |  |  |  |  | Plant response rating, Radish, Wild ([2]; Preemergence, 16 g ai/ha, scale 0 to 100 (0 no effect, 100 complete control)): 0; Plant response rating, Radish, Wild [2, 16]: 0; Plant response rating, Radish, Wild [2, 17]: 10; Plant response rating, Radish, Wild [2, 18]: 100; Plant response rating, Radish, Wild ([2]; Preemergence, 250 g ai/ha, scale 0 to 100): 100
9 | CCCc1nn(-c2ccc(C(F)(F)F)c(F)c2)nc1Oc1ccnc(C(F)(F)F)c1 [Compound 185] | 100 |  |  |  |  |  | 50 |  |  |  |  |  |  |  | 
10 | Fc1ccc(-n2nc(Cc3ccnc(C(F)(F)F)c3)c(OCC(F)(F)F)n2)cc1 [Compound 142] |  |  |  |  |  |  |  |  | 35 | 75 | 100 | 0 | 65 | 98 | Plant response rating, Foxtail, Giant ([4]; 125 g ai/ha, scale 0 to 100): 100; Plant response rating, Lambsquarters ([5]; 125 g ai/ha, scale 0 to 100): 98
